# Data: patent US20040043083A1, “Anticancer composition comprising sesquiterpenes isolated from resina ferulae” (priority 2000, published 2004)
# Legend:
# Assay type in all cases: cell-based
# [1] = test system: SK-MEL-2 (human melanoma cancer cell line); assay: Inhibition of human cancer cell line proliferation (SRB method), SK-MEL-2; settings: SK-MEL-2 cells, 48 hours
# Method: (§1) A549 (human lung cancer cell line), SK-OV-3 (human ovary cancer cell line), SK-MEL-2 ([…] melanoma cancer cell line), XF498 (Human CNS cancer cell line) and HCT-15 (human colic cancer cell line) were obtained from NCI of U.S. A. and subjected to subculture. The inhibition of the cancer cell line proliferation was determined by the SRB (sulforhodamine B) method in accordance with the procedure described by Skehan, P. et al. (J. Nat'l. Canc. Inst., 82, p1107, 1990) as follows.
# (§2) 1) Each of the subcultured cancer cell lines was collected from the surface of the culture vessel, treated with a trypsin-CDTA solution, diluted, and added to each wall of a 96-well plat bottom microplate (Falcon Co.) in an amount of 5×10^3 (A549, HCT-15), 1×10^4 (SK-MEL-2, XF498) or 2×10^4 (SK-OV-3) cells/well, followed by incubation in a CO2 incubator to anchor the cells to the bottom surface. Then the culture medium was removed from the plate with suction, a solution containing a predetermined amount of a test sample (test solution) dissolved in culture medium was added to each well; and the mixture was futher cultured for 48 hours.
# (§3) 2) Thereafter, the culture medium was removed from the plate with suction, and […] of 10% TCA (trichloro acetic acid) was added to each well. The plate was allowed to stand at room temperature for one hour to fix the cells, and was washed several times with distilled water to completely remove excess TCA and then dried.
# (§4) 3) Each well was treated with 100 μl of an SRB staining solution (0.4% suforhodamine in 1% acetic acid) for 30 minutes, washed several times with 1% acetic acid to remove the remaining staining solution, and dried at room temperature.
# (§5) 4) After adding 100 μl of 10 mM Trisma base solution (unbuffered) to each well, the plate was shaken with a titer plate shaker for 10 minutes to elute the staining solution from the cells, and the absorbance thereof at 520 nm was determined with a microplate reader.
# (§6) 5) The degree of cancer cell proliferation (% cell growth, i.e., reverse of anticancer activity) of the cell line treated with the test solution was calculated by the following numerical formula wherein C is the number of cells in a control group treated with a culture medium instead of the test solution; Tz, the number of cells at time zero; and T, the number of cells treated with the test solution calculated based on measurement. Numerical formula 1 was used when Tz>T, numerical formula 2, when Tz<T.
# (§7) Numerical formula 1=[(T−Tz)/(C−Tz)]×100
# (§8) Numerical formula 2=[(T−Tz)/Tz]×100
# (§9) 6) The amount of the samples needed for achieving 50% inhibition of the inhibiting cancer cell proliferation (ED50) was calculated from the observed degree of cell proliferation at various concentrations of the sample using the data regression of LOTUS program.
# [2] = test system: HCT-15 (human colic cancer cell line); assay: Inhibition of human cancer cell line proliferation (SRB method), HCT-15; settings: HCT-15 cells, 48 hours
# Method: as §1, §2, §3, §4, §5, §6, §7, §8, §9
# [3] = test system: A549 (human lung cancer cell line); assay: Inhibition of human cancer cell line proliferation (SRB method), A549; settings: A549 cells, 48 hours
# Method: as §1, §2, §3, §4, §5, §6, §7, §8, §9
# [4] = test system: SK-OV-3 (human ovary cancer cell line); assay: Inhibition of human cancer cell line proliferation (SRB method), SK-OV-3; settings: SK-OV-3 cells, 48 hours
# Method: as §1, §2, §3, §4, §5, §6, §7, §8, §9
# [5] = test system: XF498 (human CNS cancer cell line); assay: Inhibition of human cancer cell line proliferation (SRB method), XF498; settings: XF498 cells, 48 hours
# Method: as §1, §2, §3, §4, §5, §6, §7, §8, §9
SMILES,ED50 SK-MEL-2 [1],ED50 HCT-15 [2],ED50 A549 [3],ED50 SK-OV-3 [4],ED50 XF498 [5]
"N.N.[Cl][Pt][Cl] [Cisplastine, reference compound]",1.2 µg/mL,3.2 µg/mL,1.8 µg/mL,1.5 µg/mL,1.4 µg/mL
"CC(C)=C1CCC(C)C(C)(COc2ccc3ccc(=O)oc3c2)C1CCC(=O)O (stereo not drawn) [Compound 1, galbanic acid]",12.3 µg/mL,9.7 µg/mL,8.9 µg/mL,14.5 µg/mL,13.0 µg/mL
"C/C(=C\COc1ccc2ccc(=O)oc2c1)CC/C=C(\C)CCC(O)C(C)(C)O (stereo not drawn) [Compound 2, karatavicinol]",5.7 µg/mL,7.0 µg/mL,5.6 µg/mL,11.6 µg/mL,7.5 µg/mL
"CC(C)=CCC/C(C)=C/CC/C(C)=C/COc1ccc2ccc(=O)oc2c1 [Compound 3, umbelliprenin]",6.7 µg/mL,4.1 µg/mL,8.9 µg/mL,9.4 µg/mL,5.3 µg/mL
"C=C1CC[C@@H](O)C(C)(C)C1CC/C(C)=C/COc1ccc2ccc(=O)oc2c1 (stereo partly drawn) [Compound 4, farnesiferol B]",7.1 µg/mL,4.3 µg/mL,7.2 µg/mL,10.0 µg/mL,7.1 µg/mL
"C/C(=C\COc1ccc2ccc(=O)oc2c1)CC[C@@H]1C(C)(C)[C@H]2CC[C@]1(C)O2 [Compound 5, farnesiferol C]",3.9 µg/mL,4.3 µg/mL,4.2 µg/mL,7.2 µg/mL,5.4 µg/mL
